# Measurements as given in patent US10138230B2, “Autotaxin inhibitors” (CANCER RESEARCH TECHNOLOGY LIMITED, priority 2015, dated 2018).
# Counter-ions that a name gives are not always drawn.
# Molecular target: human recombinant ATX (Homo sapiens (Human), UniProt Q13822)
# Test: Autotaxin (ATX) activity Quanta Red assay
# Format: biochemical
# Settings: 15 μM Rac-1-Palmitoyl-glycero-3-phosphocholine, 2 hours room temperature, determined in duplicate
# Procedure: The ATX enzyme assay (Quanta Red assay) described in accompanying Example section may be used to measure the pharmacological effects of the compounds of the present invention.
# Autotaxin (ATX) Activity Quanta Red Assay
# Measuring ATX activity using an enzyme coupled Quanta Red assay (Thermo Scientific—Pierce Protein Research Products, Product #15159) was determined as follows. 8 μL human recombinant ATX (final concentration 0.8 μg/mL) in 1× Assay buffer containing 50 mM Tris-HCl (pH 8.0), 5 mM CaCl2 was added to an opaque black flat-bottom 384-well plate (Corning, #3575) containing 2 μL test compound in 40% DMSO (4% final DMSO concentration). 10 μL of Quanta Red, Horseradish peroxidase (HRP), Choline Oxidase (CO), Rac-1-Palmitoyl-glycero-3-phosphocholine solution (final concentration 1:250 for Quanta Red, 0.5units/ml HRP, 0.5units/ml CO, 15 μM Rac-1-Palmitoyl-glycero-3-phosphocholine) in 1× assay buffer (as described previously) was added to each well to start the reaction and the plate was incubated at room temperature for 2 hours. The reaction was stopped after 2 hours with a 20 μL addition of Quanta Red Stop solution (1:20 dilution in distilled water). The above-described mixture with DMSO alone was used as a positive control whereas that with DMSO alone without ATX was taken as a negative control.
# For each test compound, ten concentrations were measured covering a range of 6.1 nM to 120 μM to determine IC50 values. The top concentration was decreased to 1.2 μM when a test compound's IC50 value was evaluated in low nanomolar range. Fluorescence was determined in a BMG Labtech Pherastar plus plate reader ([…]). Data were analysed using Excel fit software. IC50 values were determined in duplicate.
row,SMILES,IC50 [nM]
1,"O=C(Nc1cc(CCc2ccccc2)on1)C1CC(=O)N(c2ccc(CN3CCOCC3)cc2)C1 (centres unmarked) [Compound F158, 1-[4-(morpholinomethyl)phenyl]-5-oxo-N-[5-(2-phenylethyl)isoxazol-3-yl]pyrrolidine-3-carboxamide]",17
2,"CC1CCN(Cc2ccc(N3CC(C(=O)Nc4nnc(CCc5ccc(Cl)cc5)s4)CC3=O)cc2)CC1 (centres unmarked) [Compound F95, 1-[4-(4-methyl-piperidin-1-ylmethyl)-phenyl]-5-oxo-pyrrolidine-3-carboxylic acid {5-[2-(4-chloro-phenyl)-ethyl]-[1,3,4]thiadiazol-2-yl}-amide]",2
3,"O=C(NC1CC(=O)N(c2ccc(CN3CCCCC3)cc2)C1)c1ncc(CCc2ccccc2)s1 (centres unmarked) [Compound F197, N-[5-oxo-1-[4-(1-piperidylmethyl)phenyl]pyrrolidin-3-yl]-5-(2-phenylethyl)thiazole-2-carboxamide]",465
4,"CS(=O)(=O)NCc1ccc(N2C[C@H](NC(=O)c3nnc(CCc4ccc(Cl)cc4)s3)CC2=O)cc1 [Compound F214, 5-[2-(4-chlorophenyl)ethyl]-N-[(3R)-1-[4-(methanesulfonamido-methyl)phenyl]-5-oxo-pyrrolidin-3-yl]-1,3,4-thiadiazole-2-carboxamide]",134
5,"CN(Cc1ccc(N2C[C@@H](C(=O)Nc3ccc(CCc4ccc(F)cc4)nn3)CC2=O)cc1)C1CCOCC1 [Compound F126, (3S)-N-[6-[2-(4-fluorophenyl)ethyl]pyridazin-3-yl]-1-[4-[[methyl(tetrahydropyran-4-yl)amino]methyl]phenyl]-5-oxo-pyrrolidine-3-carboxamide]",8
6,"O=C(Nc1nnc(CCc2ccc(C(F)(F)F)cc2)s1)[C@H]1CC(=O)N(c2ccc(CN3CCOCC3)cc2)C1 [Compound F97, (3S)-1-[4-(morpholinomethyl)phenyl]-5-oxo-N-[5-[2-[4-(trifluoromethyl)phenyl]ethyl]-1,3,4-thiadiazol-2-yl]pyrrolidine-3-carboxamide]",2
7,"O=C(Nc1nnc(CCc2ccc(Cl)cc2)s1)C1CC(=O)N(c2ccc(CN3CCCCC3)cc2)C1 (centres unmarked) [Compound F99, N-[5-[2-(4-chlorophenyl)ethyl]-1,3,4-thiadiazol-2-yl]-5-oxo-1-[4-(1-piperidylmethyl)phenyl] pyrrolidine-3-carboxamide]",2
8,"O=C(Nc1nnc(CCc2ccc(Cl)cc2)s1)C1CC(=O)N(c2ccc(CN3CCNCC3)cc2)C1 (centres unmarked) [Compound F160, 5-Oxo-1-(4-piperazin-1-ylmethyl-phenyl)-pyrrolidine-3-carboxylic acid {5-[2-(4-chloro-phenyl)-ethyl]-[1,3,4]thiadiazol-2-yl}-amide; dihydrochloride]",24
9,"O=C(Nc1ncc(CCc2ccccc2)s1)C1CC(=O)N(c2ccc(CN3CCOCC3)cc2)C1 (centres unmarked) [Compound F118, 1-[4-(morpholinomethyl)phenyl]-5-oxo-N-[5-(2-phenylethyl)thiazol-2-yl]pyrrolidine-3-carboxamide]",4
10,"O=C(N[C@@H]1CC(=O)N(c2ccc(CN3CCCCC3)cc2)C1)c1cc(CCc2ccc(Cl)cc2)on1 [Compound F143, 5-[2-(4-chlorophenyl)ethyl]-N-[(3R)-5-oxo-1-[4-(1-piperidylmethyl)phenyl]pyrrolidin-3-yl]isoxazole-3-carboxamide]",2
11,"O=C(Nc1nnc(CCC2CCCCO2)s1)[C@H]1CC(=O)N(c2ccc(CN3CCCCC3)cc2)C1 (stereo partly drawn) [Compound F164, (3S)-5-oxo-1-[4-(1-piperidylmethyl)phenyl]-N-[5-(2-tetrahydropyran-2-ylethyl)-1,3,4-thiadiazol-2-yl]pyrrolidine-3-carboxamide]",70
12,"O=C(Nc1nnc(CCc2ccc(Cl)cc2)s1)[C@H]1CC(=O)N(c2ccc(CN3CCCCCC3)cc2)C1 [Compound F91, (3S)-1-[4-(azepan-1-ylmethyl)phenyl]-N-[5-[2-(4-chlorophenyl)ethyl]-1,3,4-thiadiazol-2-yl]-5-oxo-pyrrolidine-3-carboxamide]",1
13,"O=C(Nc1nnc(CCC2CCCC2)s1)C1CC(=O)N(c2ccc(CN3CCC(F)CC3)cc2)C1 (centres unmarked) [Compound F113, N-[5-(2-cyclopentylethyl)-1,3,4-thiadiazol-2-yl]-1-[4-[(4-fluoro-1-piperidyl)methyl]phenyl]-5-oxo-pyrrolidine-3-carboxamide]",3
14,"CC1CN(Cc2ccc(N3CC(C(=O)Nc4nnc(CCc5ccc(Cl)cc5)s4)CC3=O)cc2)C[C@H](C)O1 (stereo in doubt) [Compound F125, N-[5-[2-(4-chlorophenyl)ethyl]-1,3,4-thiadiazol-2-yl]-1-[4-[[(2S,6S)-2,6-dimethylmorpholin-4-yl]methyl]phenyl]-5-oxo-pyrrolidine-3-carboxamide]",8
15,"O=C(Nc1nnc(CCc2ccc(Cl)cc2)s1)[C@H]1CC(=O)N(c2ccc(CN3CCCCC3)cc2)C1 [Compound F93, (3S)-N-[5-[2-(4-chlorophenyl)ethyl]-1,3,4-thiadiazol-2-yl]-5-oxo-1-[4-(1-piperidylmethyl)phenyl] pyrrolidine-3-carboxamide]",1
16,"O=C(Nc1nnc(CCc2ccc(Cl)cc2)s1)C1CC(=O)N(c2ccc(CN3CCCNCC3)cc2)C1 (centres unmarked) [Compound F156, 1-(4-[1,4]Diazepan-1-ylmethyl-phenyl)-5-oxo-pyrrolidine-3-carboxylic acid {5-[2-(4-chloro-phenyl)-ethyl]-[1,3,4]thiadiazol-2-yl}-amide; dihydrochloride]",14
17,"CC1(O)CCN(Cc2ccc(N3C[C@H](NC(=O)c4nnc(CCc5ccc(Cl)cc5)s4)CC3=O)cc2)CC1 [Compound F169, 5-[2-(4-chlorophenyl)ethyl]-N-[(3R)-1-[4-[(4-hydroxy-4-methyl-1-piperidyl)methyl]phenyl]-5-oxo-pyrrolidin-3-yl]-1,3,4-thiadiazole-2-carboxamide]",22
18,"O=C(Nc1nnc(CCC2CCCC2)s1)C1CC(=O)N(c2ccc(CN3CCCC(F)(F)C3)cc2)C1 (centres unmarked) [Compound F115, N-[5-(2-cyclopentylethyl)-1,3,4-thiadiazol-2-yl]-1-[4-[(3,3-difluoro-1-piperidyl)methyl]phenyl]-5-oxo-pyrrolidine-3-carboxamide]",3
19,"O=C(Nc1nnc(CCc2ccc(Cl)cc2)s1)[C@H]1CC(=O)N(c2ccc(CN3CCCOCC3)cc2)C1 [Compound F104, (3S)-N-[5-[2-(4-chlorophenyl)ethyl]-1,3,4-thiadiazol-2-yl]-1-[4-(1,4-oxazepan-4-ylmethyl)phenyl]-5-oxo-pyrrolidine-3-carboxamide]",3
20,"CC1CCN(Cc2ccc(N3CC(NC(=O)c4nnc(CCc5ccc(Cl)cc5)s4)CC3=O)cc2)CC1 (centres unmarked) [Compound F136, 5-[2-(4-chlorophenyl)ethyl]-N-[1-[4-[(4-methyl-1-piperidyl)methyl]phenyl]-5-oxo-pyrrolidin-3-yl]-1,3,4-thiadiazole-2-carboxamide]",4
21,"O=C(Nc1nnc(CCc2ccc(Cl)cc2)s1)[C@@H]1CC(=O)N(c2ccc(CN3CCOCC3)cc2)C1 [Compound F161, (3R)-N-[5-[2-(4-chlorophenyl)ethyl]-1,3,4-thiadiazol-2-yl]-1-[4-(morpholinomethyl)phenyl]-5-oxo-pyrrolidine-3-carboxamide]",37
22,"COCCN(C)Cc1ccc(N2CC(C(=O)Nc3nnc(CCc4ccc(Cl)cc4)s3)CC2=O)cc1 (centres unmarked) [Compound F100, N-[5-[2-(4-chlorophenyl)ethyl]-1,3,4-thiadiazol-2-yl]-1-[4-[[2-methoxyethyl(methyl)amino]methyl]phenyl]-5-oxo-pyrrolidine-3-carboxamide]",2
23,"O=C(N[C@H]1CC(=O)N(c2ccc(CN3CCOCC3)cc2)C1)c1nnc(CCc2ccc(Cl)cc2)s1 [Compound F135, 5-[2-(4-chlorophenyl)ethyl]-N-[(3S)-1-[4-(morpholinomethyl)phenyl]-5-oxo-pyrrolidin-3-yl]-1,3,4-thiadiazole-2-carboxamide]",3
24,"O=C1CC(CNc2nnc(CCc3ccc(Cl)cc3)s2)CN1c1ccc(CN2CCOCC2)cc1 (centres unmarked) [Compound F153, 4-({5-[2-(4-Chloro-phenyl)-ethyl]-[1,3,4]thiadiazol-2-ylamino}-methyl)-1-(4-morpholin-4-ylmethyl-phenyl)-pyrrolidin-2-one]",2
25,"NCc1ccc(N2CC(C(=O)Nc3nnc(CCc4ccc(Cl)cc4)s3)CC2=O)cc1 (centres unmarked) [Compound F203, 1-(4-aminomethyl-phenyl)-5-oxo-pyrrolidine-3-carboxylic acid {5-[2-(4-chloro-phenyl)-ethyl]-[1,3,4]thiadiazol-2-yl}-amide]",385
26,"O=C(NC1CC(=O)N(c2ccc(CN3CCCCC3)cc2)C1)c1ccc(CCc2ccccc2)nn1 (centres unmarked) [Compound F205, N-[5-oxo-1-[4-(1-piperidylmethyl)phenyl]pyrrolidin-3-yl]-6-(2-phenylethyl)pyridazine-3-carboxamide]",7060
